The term IC50 denotes the midpoint of a concentration-inhibition curve.

Among the data in ChEMBL document CHEMBL5726876, “NHE3-binding compounds and methods for inhibiting phosphate transport” (2019) are IC50 values, retold here.

The nature of the experiment: Cell-based activity under Prompt Conditions: Cell-based activity under Prompt Conditions. Rat or human NHE3-mediated Na+-dependent H+ antiport was measured using a modification of the pH sensitive dye method originally reported by Paradiso (PNAS USA. 81:7436-7440, 1984). Opossum kidney (OK) cells were obtained from the ATCC and propagated per their instructions. The rat NHE3 gene (GenBank M85300) or the human NHE3 gene (GenBank NM_004174.1) was introduced into OK cells via electroporation, and cells were seeded into 96 well plates and grown overnight. Medium was aspirated from the wells, cells were washed twice with NaCl-HEPES buffer (100 mM NaCl, 50 mM HEPES, 10 mM glucose, 5 mM KCl, 2 mM CaCl2, 1 mM MgCl2, pH 7.4), then incubated for 30 min at room temperature with NH4Cl-HEPES buffer (20 mM NH4Cl, 80 mM NaCl, 50 mM HEPES, 5 mM KCl, 2 mM CaCl2, 1 mM MgCl2, pH 7.4) containing 5 μM bis(acetoxymethyl) 3,3′-(3′,6′-bis(acetoxymethoxy)-5-((acetoxymethoxy)carbonyl)-3-oxo-3H-spiro[isobenzofuran-1,9′-xanthene]-2′,7′-diyl)dipropanoate (BCECF-AM).Cells were washed twice with Ammonium free, Na+-free HEPES (100 mM choline, 50 mM HEPES, 10 mM glucose, 5 mM KCl, 2 mM CaCl2, 1 mM MgCl2, pH 7.4) and incubated in the same buffer for 10 minutes at room temperature to lower intracellular pH. […] Initial rates were plotted as the average 2 or more replicates, and pIC50 values were estimated using GraphPad Prism.

In the case of `CN1Cc2c(Cl)cc(Cl)cc2[C@H](c2cccc(S(=O)(=O)NCCOCCOCCNC(=O)CCC(CCC(=O)NCCOCCOCCNS(=O)(=O)c3cccc([C@@H]4CN(C)Cc5c(Cl)cc(Cl)cc54)c3)(CCC(=O)NCCOCCOCCNS(=O)(=O)c3cccc([C@@H]4CN(C)Cc5c(Cl)cc(Cl)cc54)c3)NC(=O)NC[C@H](O)[C@@H](O)[C@H](O)[C@H](O)CO)c2)C1`, the IC50 was 56.2 nM.

With `CN1Cc2c(Cl)cc(Cl)cc2[C@H](c2cccc(S(=O)(=O)NCCOCCOCCNC(=O)CCC(CCC(=O)NCCOCCOCCNS(=O)(=O)c3cccc([C@@H]4CN(C)Cc5c(Cl)cc(Cl)cc54)c3)(CCC(=O)NCCOCCOCCNS(=O)(=O)c3cccc([C@@H]4CN(C)Cc5c(Cl)cc(Cl)cc54)c3)NC(=O)N(C)C[C@H](O)[C@@H](O)[C@H](O)[C@H](O)CO)c2)C1`, the IC50 is 7.94 nM.

In the case of `O=C(NCCCCNC(=O)NCCOCCOCCNS(=O)(=O)c1ccc(O[C@H]2c3cc(Cl)cc(F)c3C[C@@H]2N2CC[C@@H](O)C2)cc1)NCCOCCOCCNS(=O)(=O)c1ccc(O[C@H]2c3cc(Cl)cc(F)c3C[C@@H]2N2CC[C@@H](O)C2)cc1`, the IC50 is less than 10000 nM.

Take `CN1Cc2c(Cl)cc(Cl)cc2[C@H](c2cccc(S(=O)(=O)NCCOCCOCCNC(=O)CCC(CCC(=O)NCCOCCOCCNS(=O)(=O)c3cccc([C@@H]4CN(C)Cc5c(Cl)cc(Cl)cc54)c3)(CCC(=O)NCCOCCOCCNS(=O)(=O)c3cccc([C@@H]4CN(C)Cc5c(Cl)cc(Cl)cc54)c3)NC(=O)NCC(=O)O)c2)C1`: the half-maximal inhibitory concentration (IC50) is 29.5 nM.

Take `CN1Cc2c(Cl)cc(Cl)cc2[C@H](c2cccc(S(=O)(=O)NCCOCCOCCNC(=O)CCC(CCC(=O)NCCOCCOCCNS(=O)(=O)c3cccc([C@@H]4CN(C)Cc5c(Cl)cc(Cl)cc54)c3)(CCC(=O)NCCOCCOCCNS(=O)(=O)c3cccc([C@@H]4CN(C)Cc5c(Cl)cc(Cl)cc54)c3)NC(=O)Cc3nnn[nH]3)c2)C1`: the IC50 is 200 nM.

As to `CC(=O)C(CCC(=O)NCCOCCOCCNS(=O)(=O)c1cccc([C@@H]2CN(C)Cc3c(Cl)cc(Cl)cc32)c1)(CCC(=O)NCCOCCOCCNS(=O)(=O)c1cccc([C@@H]2CN(C)Cc3c(Cl)cc(Cl)cc32)c1)CCC(=O)NCCOCCOCCNS(=O)(=O)c1cccc([C@@H]2CN(C)Cc3c(Cl)cc(Cl)cc32)c1`, the IC50 is 316 nM.

Turning to `CN(C)[C@H]1Cc2c(Cl)cc(Cl)cc2[C@@H]1Oc1ccc(S(=O)(=O)NCCOCCOCCNC(=O)COCC(=O)NCCOCCOCCNS(=O)(=O)c2ccc(O[C@H]3c4cc(Cl)cc(Cl)c4C[C@@H]3N(C)C)cc2)cc1`, the IC50 was 7.94 nM.

With `CN(C)[C@H]1Cc2c(Cl)cc(Cl)cc2[C@@H]1Oc1ccc(S(=O)(=O)NCCOCCOCCNC(=O)CCC(=O)NCCOCCOCCNS(=O)(=O)c2ccc(O[C@H]3c4cc(Cl)cc(Cl)c4C[C@@H]3N(C)C)cc2)cc1`, the IC50 is 3.98 nM.

Regarding `CN1Cc2c(Cl)cc(Cl)cc2[C@H](c2cccc(S(=O)(=O)NCCOCCOCCNC(=O)CCC(CCC(=O)NCCOCCOCCNS(=O)(=O)c3cccc([C@@H]4CN(C)Cc5c(Cl)cc(Cl)cc54)c3)(CCC(=O)NCCOCCOCCNS(=O)(=O)c3cccc([C@@H]4CN(C)Cc5c(Cl)cc(Cl)cc54)c3)NC(=O)N[C@@H](CO)C(=O)O)c2)C1`, the IC50 was 12.6 nM.

Take `CN(C)[C@H]1Cc2c(Cl)cc(Cl)cc2[C@@H]1Oc1ccc(S(=O)(=O)NCCOCCOCCNC(=O)Nc2ccc(NC(=O)NCCOCCOCCNS(=O)(=O)c3ccc(O[C@H]4c5cc(Cl)cc(Cl)c5C[C@@H]4N(C)C)cc3)cc2)cc1`: the concentration for half-maximal inhibition (IC50) is less than 10000 nM.

`CN1Cc2c(Cl)cc(Cl)cc2[C@H](c2cccc(S(=O)(=O)NCCOCCOCCNC(=O)CCC(CCC(=O)NCCOCCOCCNS(=O)(=O)c3cccc([C@@H]4CN(C)Cc5c(Cl)cc(Cl)cc54)c3)(CCC(=O)NCCOCCOCCNS(=O)(=O)c3cccc([C@@H]4CN(C)Cc5c(Cl)cc(Cl)cc54)c3)NC(=O)NCCS(=O)(=O)O)c2)C1`: the IC50 is 20 nM.

On to `CN1Cc2c(Cl)cc(Cl)cc2[C@H](c2cccc(S(=O)(=O)NCCOCCOCCNC(=O)CCC(CCC(=O)NCCOCCOCCNS(=O)(=O)c3cccc([C@@H]4CN(C)Cc5c(Cl)cc(Cl)cc54)c3)(CCC(=O)NCCOCCOCCNS(=O)(=O)c3cccc([C@@H]4CN(C)Cc5c(Cl)cc(Cl)cc54)c3)NC(=O)NCCN3CCOCC3)c2)C1`, for which the IC50 is 63.1 nM.

With `CN(C)[C@H]1Cc2c(F)cc(Cl)cc2[C@@H]1Oc1ccc(S(=O)(=O)NCCOCCOCCNC(=O)NCCCCNC(=O)NCCOCCOCCNS(=O)(=O)c2ccc(O[C@H]3c4cc(Cl)cc(F)c4C[C@@H]3N(C)C)cc2)cc1`, the IC50 is less than 10000 nM.

For `CN1Cc2c(Cl)cc(Cl)cc2[C@H](c2cccc(S(=O)(=O)NCCOCCOCCNC(=O)NCCCC(CCCNC(=O)NCCOCCOCCNS(=O)(=O)c3cccc([C@@H]4CN(C)Cc5c(Cl)cc(Cl)cc54)c3)(CCCNC(=O)NCCOCCOCCNS(=O)(=O)c3cccc([C@@H]4CN(C)Cc5c(Cl)cc(Cl)cc54)c3)NC(=O)COCC(=O)O)c2)C1`, the IC50 was 0.631 nM.

`CN1Cc2c(Cl)cc(Cl)cc2[C@H](c2cccc(S(=O)(=O)NCCOCCOCCNC(=O)CCC(CCC(=O)NCCOCCOCCNS(=O)(=O)c3cccc([C@@H]4CN(C)Cc5c(Cl)cc(Cl)cc54)c3)(CCC(=O)NCCOCCOCCNS(=O)(=O)c3cccc([C@@H]4CN(C)Cc5c(Cl)cc(Cl)cc54)c3)NC(=O)NC(CO)(CO)CO)c2)C1`: the IC50 was less than 10000 nM.

In the case of `C[C@@H](O)[C@H](NC(=O)NC(CCC(=O)NCCOCCOCCNS(=O)(=O)c1cccc([C@@H]2CN(C)Cc3c(Cl)cc(Cl)cc32)c1)(CCC(=O)NCCOCCOCCNS(=O)(=O)c1cccc([C@@H]2CN(C)Cc3c(Cl)cc(Cl)cc32)c1)CCC(=O)NCCOCCOCCNS(=O)(=O)c1cccc([C@@H]2CN(C)Cc3c(Cl)cc(Cl)cc32)c1)C(N)=O`, the IC50 is 63.1 nM.

Turning to `CN(C)[C@H]1Cc2c(Cl)cc(Cl)cc2[C@@H]1Oc1ccc(S(=O)(=O)NCCOCCOCCNC(=O)[C@H](O)[C@@H](O)C(=O)NCCOCCOCCNS(=O)(=O)c2ccc(O[C@H]3c4cc(Cl)cc(Cl)c4C[C@@H]3N(C)C)cc2)cc1`, the IC50 was 2.51 nM.

As to `CN1Cc2c(Cl)cc(Cl)cc2[C@H](c2cccc(S(=O)(=O)NCCOCCOCCNC(=O)NCCCC(N)(CCCNC(=O)NCCOCCOCCNS(=O)(=O)c3cccc([C@@H]4CN(C)Cc5c(Cl)cc(Cl)cc54)c3)CCCNC(=O)NCCOCCOCCNS(=O)(=O)c3cccc([C@@H]4CN(C)Cc5c(Cl)cc(Cl)cc54)c3)c2)C1`, the IC50 was 100 nM.

On to `CN1Cc2c(Cl)cc(Cl)cc2[C@H](c2cccc(S(=O)(=O)N(CCO)CCOCCOCCNC(=O)NCCCN(CCCNC(=O)NCCOCCOCCN(CCO)S(=O)(=O)c3cccc([C@@H]4CN(C)Cc5c(Cl)cc(Cl)cc54)c3)CCCNC(=O)NCCOCCOCCN(CCO)S(=O)(=O)c3cccc([C@@H]4CN(C)Cc5c(Cl)cc(Cl)cc54)c3)c2)C1`, for which the half-inhibitory concentration (IC50) was 15.8 nM.

For the compound `CN1Cc2c(Cl)cc(Cl)cc2[C@H](c2cccc(S(=O)(=O)NCCOCCOCCNC(=O)CCC(CCC(=O)NCCOCCOCCNS(=O)(=O)c3cccc([C@@H]4CN(C)Cc5c(Cl)cc(Cl)cc54)c3)(CCC(=O)NCCOCCOCCNS(=O)(=O)c3cccc([C@@H]4CN(C)Cc5c(Cl)cc(Cl)cc54)c3)NC(=O)Cn3ccnc3)c2)C1`, the IC50 is 158 nM.

Take `CN(C)[C@H]1Cc2c(Cl)cc(Cl)cc2[C@@H]1Oc1ccc(S(=O)(=O)NCCOCCOCCNC(=O)C(C)(C)C(=O)NCCOCCOCCNS(=O)(=O)c2ccc(O[C@H]3c4cc(Cl)cc(Cl)c4C[C@@H]3N(C)C)cc2)cc1`: the IC50 is 5.01 nM.

In the case of `CN1Cc2c(Cl)cc(Cl)cc2[C@H](c2cccc(S(=O)(=O)NCCOCCOCCNC(=O)NCCC(CCNC(=O)NCCOCCOCCNS(=O)(=O)c3cccc([C@@H]4CN(C)Cc5c(Cl)cc(Cl)cc54)c3)(CCNC(=O)NCCOCCOCCNS(=O)(=O)c3cccc([C@@H]4CN(C)Cc5c(Cl)cc(Cl)cc54)c3)NC(=O)COCC(=O)O)c2)C1`, the IC50 was 6.31 nM.

As for `CN1Cc2c(Cl)cc(Cl)cc2[C@H](c2cccc(S(=O)(=O)NCCOCCOCCNC(=O)NCCCC(CCCNC(=O)NCCOCCOCCNS(=O)(=O)c3cccc([C@@H]4CN(C)Cc5c(Cl)cc(Cl)cc54)c3)(CCCNC(=O)NCCOCCOCCNS(=O)(=O)c3cccc([C@@H]4CN(C)Cc5c(Cl)cc(Cl)cc54)c3)NC(=O)CCC(=O)O)c2)C1`, the IC50 is 20 nM.

With `CN1Cc2c(Cl)cc(Cl)cc2[C@H](c2cccc(S(=O)(=O)NCCOCCOCCNC(=O)NCCCC(CCCNC(=O)NCCOCCOCCNS(=O)(=O)c3cccc([C@@H]4CN(C)Cc5c(Cl)cc(Cl)cc54)c3)(CCCNC(=O)NCCOCCOCCNS(=O)(=O)c3cccc([C@@H]4CN(C)Cc5c(Cl)cc(Cl)cc54)c3)NC(=O)NC[C@H](O)[C@@H](O)[C@H](O)[C@H](O)CO)c2)C1`, the IC50 is 1580 nM.

Regarding `CN1Cc2c(Cl)cc(Cl)cc2[C@H](c2cccc(S(=O)(=O)NCCOCCOCCNC(=O)CCC(CCCNC(=O)NCCOCCOCCNS(=O)(=O)c3cccc([C@@H]4CN(C)Cc5c(Cl)cc(Cl)cc54)c3)(CCC(=O)NCCOCCOCCNS(=O)(=O)c3cccc([C@@H]4CN(C)Cc5c(Cl)cc(Cl)cc54)c3)NC(=O)NCP(=O)(O)O)c2)C1`, the IC50 was 50.1 nM.

With `CN1CCN(C(=O)NC(CCC(=O)NCCOCCOCCNS(=O)(=O)c2cccc([C@@H]3CN(C)Cc4c(Cl)cc(Cl)cc43)c2)(CCC(=O)NCCOCCOCCNS(=O)(=O)c2cccc([C@@H]3CN(C)Cc4c(Cl)cc(Cl)cc43)c2)CCC(=O)NCCOCCOCCNS(=O)(=O)c2cccc([C@@H]3CN(C)Cc4c(Cl)cc(Cl)cc43)c2)CC1`, the IC50 is 126 nM.

With `CN1Cc2c(Cl)cc(Cl)cc2[C@H](c2cccc(S(=O)(=O)NCCOCCOCCNC(=O)NCCC(N)(CCNC(=O)NCCOCCOCCNS(=O)(=O)c3cccc([C@@H]4CN(C)Cc5c(Cl)cc(Cl)cc54)c3)CCNC(=O)NCCOCCOCCNS(=O)(=O)c3cccc([C@@H]4CN(C)Cc5c(Cl)cc(Cl)cc54)c3)c2)C1`, the IC50 was 44.7 nM.

Take `CN1Cc2c(Cl)cc(Cl)cc2[C@H](c2cccc(S(=O)(=O)NCCOCCOCCNC(=O)CCC(CCC(=O)NCCOCCOCCNS(=O)(=O)c3cccc([C@@H]4CN(C)Cc5c(Cl)cc(Cl)cc54)c3)(CCC(=O)NCCOCCOCCNS(=O)(=O)c3cccc([C@H]4c5cc(Cl)cc(Cl)c5CCN4C)c3)NC(=O)N[C@@H](CC(=O)O)C(=O)O)c2)C1`: the IC50 was 25.1 nM.
